Measured values: PMC7139940, “Comparative Analysis of High-Throughput Assays of Family-1 Plant Glycosyltransferases” (International Journal of Molecular Sciences, 2020)

The molecules below were run on T1, UGT72B27 (assay: UDP-Glo luminescent UDP release assay, 384-well). Conditions: 100 µM UDP-glucose, 50 mM Tris/HCl pH 7.5, 30 °C, 10 min, heat stop; poorly soluble, high DMSO; read-out: b. UDP-Glo^TM Assay / KM.
T1 construct: recombinant GST fusion (pGEX-4T-1) from E. coli BL21(DE3) pLysS, purified on GST resin
Assay type: biochemical, Vitis vinifera
Source text: UDP-Glo luminescent UDP release assay, 384-well on UGT72B27
Work on `Oc1ccc(/C=C/c2cc(O)cc(O)c2)cc1` [trans-Resveratrol] yielded a Km of 21 ± 5 µM.

Same assay, conditions: 100 µM UDP-glucose, 50 mM Tris/HCl pH 7.5, 30 °C, 10 min, heat stop; read-out: b. UDP-Glo^TM Assay / KM
`COc1cccc(OC)c1O` [DMP, 2,6-Dimethoxyphenol] was tested, and the Km was 23 ± 3 µM.
`CC1=C(O)C(=O)C(C)O1` (centres unmarked) [Furaneol] showed a Km of 453 ± 35 µM.
With `COc1ccccc1O` [Guaiacol, 2-Methoxyphenol] the Km was 23 ± 1 µM.
In the case of `COc1cc(C)cc(OC)c1O` [MDMP, 4-Methyl-2,6-dimethoxyphenol], the Km is reported as 173 ± 28 µM.
Work on `COc1cc(C)ccc1O` [MMP, 2-Methoxy-4-methylphenol] yielded a Km of 41 ± 9 µM.
With `Oc1ccccc1` [Phenol] the Km was 153 ± 24 µM.
`Oc1cc(O)cc(O)c1` [Phloroglucinol] was tested, and the Km was 35 ± 4 µM.
`Cc1ccc(C(C)C)c(O)c1` [Thymol] showed a Km of 28 ± 7 µM.
`Cc1cccc(O)c1` [m-Cresol] was tested, and the Km was 14 ± 3 µM.
`Cc1ccccc1O` [o-Cresol] was tested, and the Km was 40 ± 5 µM.
